From ChEMBL document CHEMBL1133170, “Binding mode of the 4-anilinoquinazoline class of protein kinase inhibitor: X-ray crystallographic studies of 4-anilinoquinazolines bound to cyclin-dependent kinase 2 and p38 kinase” (J Med Chem, 2000) come the findings set out here.

The target of experiment [1] is Cyclin-dependent kinase 2 (Homo sapiens, UniProt P24941). Description: Inhibition of Cyclin-dependent kinase 2.
The target in experiment [2] is MAP kinase p38 (Homo sapiens, UniProt O15264+Q15759+Q16539+P53778). Description: Inhibition of Mitogen-activated protein kinase p38. It counts as protein assay.

One may read the IC50 as the concentration that inhibits the measured activity by half. On to `COc1cc2ncnc(Nc3cccc(Br)c3)c2cc1OC`, for which the figures for the IC50 in experiment [1] and in experiment [2] were 250 µM and 6.3 µM, respectively.
